{"source": "patent US4029688A", "about": "“Carbamic pesticidal compositions” (priority 1974, dated 1977)", "key": {"[1]": {"system": "bean aphid (Aphis fabae Scop.)", "assay": "Bean Aphid Foliage Spray Test", "format": "in vivo", "conditions": "Aphis fabae, foliar; Table II, side by side comparison; read-out: Aphids LD50", "experimental": "(§1) Suspensions of the test compounds were prepared by dissolving one gram of compound in 50 milliliters of acetone in which had been dissolved 0.1 gram (10 percent of the weight of compound) of an alkylphenoxy polyethoxyethanol surfactant, as an emulsifying or dispersing agent. The resulting solution was mixed into 150 milliliters of water to give roughly 200 milliliters of a suspension containing the compound in finely divided form. The thus-prepared stock suspension contained 0.5 percent by weight of compound. The test concentrations in parts per million by weight employed in the tests described hereinbelow were obtained by appropriate dilutions of the stock suspension with water. The test procedures were as follows:\nAdults and nymphal stages of the bean aphid (Aphis fabae Scop.) reared on potted dwarf nasturtium plants at 65°-70° F. and 50-70 percent relative humidity, constituted the test insects. For testing purposes, the number of aphids per pot was standardized to 100-150 by trimming plants containing excess aphids.\nThe test compounds were formulated by diluting the stock suspension with water to give a suspension containing 500 parts of test compound per million parts of final formulation.\nThe potted plants (one pot per compound tested) infested with 100-150 aphids, were placed on a revolving turntable and sprayed with 100-110 milliliters of test compound formulation by use of a DeVilbiss spray gun set at 40 psig. air pressure. This application, which lasted 25 seconds, was sufficient to wet the plants to run-off. As a control, 100-110 milliliters of a water-acetone-emulsifier solution containing no test compound were also sprayed on infested plants. After spraying, the pots were placed on their sides on a sheet of white standard mimeograph paper which had been previously ruled to facilitate counting. Temperature and humidity in the test room during the 24 hour holding period were 65°-70° F. and 50-70 percent, respectively. Aphids which fell onto the paper and were unable to remain standing after being uprighted were considered dead. Aphids remaining on the plants were observed closely for movement and those which were unable to move the length of the body upon stimulation by prodding were considered dead. Percent mortality was recorded for various concentration levels.\n(§2) In the tests described above, the pesticidal activity of the compounds against aphid, mite, Southern Armyworm, Bean Beetle, house fly and nematode was rated as follows:\n(§3) Comparison tests were conducted to assess the biological and chemical properties of certain representative species of the claimed invention in relation to their corresponding N-methyl carbamate compositions. The test procedures described above were employed in these experiments in order to determine the LD50 (number of parts per million of active ingredients required to achieve fifty percent mortality of the insects tested) for each of the compositions tested. In the case of the aphid and mite tests a side by side comparison was made of the N-methyl carbamate composition versus the corresponding perhalomethylsulfenyl derivative."}, "[2]": {"system": "two-spotted mite (Tetranychus urticae Koch)", "assay": "Mite Foliage Spray Test", "format": "in vivo", "conditions": "Tetranychus urticae, foliar; Table II, side by side comparison; read-out: Mites Spray LD50", "experimental": "as §1\nAdults and numphal stages of the two-spotted mite (Tetranychus urticae Koch), reared on Tendergreen bean plants at 80±5 percent relative humidity, were the test organisms. Infested leaves from a stock culture were placed on the primary leaves of two bean plants six to eight inches in height, growing in a 21/2 inch clay pot. 150 -200 Mites, a sufficient number for testing, transferred from the excised leaves to the fresh plants in a period of twenty-four hours. Following the twenty-four hour transfer period, the excised leaves were removed from the infested plants. The test compounds were formulated by diluting the stock suspension with water to give a suspension containing 500 parts of test compound per million parts of final formulation. The potted plants (one pot per compound) were placed on a revolving turntable and sprayed with 100-110 milliliters of test compound formulation by use of a DeVilbiss spray gun set at 40 psig. air pressure. This application, which lasted 25 seconds, was sufficient to wet the plants to run-off. As a control, 100-110 milliliters of a water solution containing acetone and emulsifier in the same concentrations as the test compound formulation, but containing no test compound, were also sprayed on infested plants. The sprayed plants were held at 80±5 percent relative humidity for six days, after which a mortality count of motile forms was made. Microscopic examination for motile forms was made on the leaves of the test plants. Any individual which was capable of locomotion upon prodding was considered living.\nas §2, §3"}, "[3]": {"system": "southern armyworm (Prodenia eridania, (Cram.))", "assay": "Southern Armyworm Leaf Spray Test", "format": "in vivo", "conditions": "Spodoptera eridania; Table II; read-out: Armyworm LD50", "experimental": "as §1\nLarvae of the southern armyworm (Prodenia eridania, (Cram.)), reared on Tendergreen bean plants at a temperature of 80°±5° F. and a relative humidity of 50±5 percent, constituted the test insects.\nThe test compounds were formulated by diluting the stock suspension with water to give a suspension containing 500 parts of test compound per million parts of final formulation. Potted Tendergreen bean plants of standard height and age were placed on a revolving turntable and sprayed with 100-110 milliliters of test compound formulation by use of a DeVilbiss spray gun set at 10 psig air pressure. This application, which lasted 25 seconds, was sufficient to wet plants to run-off. As a control, 100-110 milliliters of a water-acetone-emulsifier solution containing no test compound were also sprayed on infested plants. When dry, the paired leaves were separated and each one was placed in a 9 centimeter Petri dish lined with moistened filter paper. Five randomly selected larvae were introduced into each dish and the dishes were closed. The closed dishes were labeled and held at 80-85° F. for three days. Although the larvae could easily consume the whole leaf within twenty-four hours, no more food was added. Larvae which were unable to move the length of the body, even upon stimulation by prodding, were considered dead. Percent mortality was recorded for various concentration levels.\nas §2, §3"}, "[4]": {"system": "Mexican bean beetle (Epilachna varivestis, Muls.)", "assay": "Mexican Bean Beetle Leaf Spray Test", "format": "in vivo", "conditions": "Epilachna varivestis; Table II; read-out: Beetle LD50", "experimental": "as §1\nFourth instar larvae of the Mexican bean beetle (Epilachna varivestis, Muls.), reared on Tendergreen bean plants at a temperature of 80°±5° F. and 50±5 percent relative humidity, were the test insects.\nThe test compounds were formulated by diluting the stock suspension with water to give a suspension containing 500 parts of test compound per million parts of final formulation. Potted Tendergreen bean plants of standard height and age were placed on a revolving turntable and sprayed with 100-110 milliliters of test compound formulation by use of a DeVilbiss spray gun set at 10 psig air pressure. This application, which lasted 25 seconds, was sufficient to wet plants to run-off. As a control, 100-110 milliliters of a water-acetone-emulsifier solution containing no test compound were also sprayed on infested plants. When dry, the paired leaves were separated and each was placed in a 9 centimeter Petri dish lined with moistened filter paper. Five randomly selected larvae were introduced into each dish, and the dishes were closed. The closed dishes were labeled and held at a temperature of 80°±5° F. for three days. Although the larvae could easily consume the leaf within 24 to 48 hours, no more food was added. Larvae which were unable to move the length of the body, even upon stimulation, were considered dead.\nas §2, §3"}, "[5]": {"system": "house flies (Musca domestica, L.)", "assay": "Fly Bait Test", "format": "in vivo", "conditions": "Musca domestica; Table II; read-out: Housefly LD50", "experimental": "as §1\nFour to six day old adult house flies (Musca domestica, L.), reared according to the specifications of the Chemical Specialties Manufacturing Association (Blue Book, McNair-Dorland Co., N. Y. 1954; pages 243-244, 261) under controlled conditions of 80°±5° F. and 50±5 percent relative humidity, were the test insects. The flies were immobilized by anesthetizing with carbon dioxide and twenty-five immobilized individuals, males and females, were transferred to a cage consisting of a standard food strainer about five inches in diameter which was inverted over a wrapping-paper-covered surface. The test compounds were formulated by diluting the stock suspension with a 10 percent (by weight) sugar solution to give a suspension containing 500 parts of test compound per million parts of final formulation, by weight. Ten milliliters of the test formulation were added to a souffle cup containing a one-inch square of an absorbent cotton pad. This bait cup was introduced and centered on the blotting paper under the food strainer prior to admitting the anesthetized flies. The caged flies were allowed to feed on the bait for twenty-four hours, at a temperature of 80°±5° F. and the relative humidity of 50±5 percent.\nas §2, §3"}, "[6]": {"assay": "Peroral toxicity to mammals (rat)", "conditions": "in vivo, po, Table II", "experimental": "Certain of these compositions were also evaluated to determine their peroral toxicity to mammals. The animal selected for this experiment was the rat. The test results obtained are expressed in terms of the number of milligrams of composition per kilogram of weight of the animal required to achieve a mortality rate of 50 percent (LD50)."}, "Chemical stability": {"assay": "Chemical stability", "format": "physicochemical", "conditions": "Table II"}}}
{"smiles": "CNC(=O)ON=CC(C)(C)C#N", "note": "[drawing 22 R=H, X=CN, reference compound]", "values": [{"measurement": "LC50", "setting": "[1]", "result": 12, "unit": "µg/mL"}, {"measurement": "LC50", "setting": "[2]", "result": 40, "unit": "µg/mL"}, {"measurement": "LC50", "setting": "[3]", "result": 55, "unit": "µg/mL"}, {"measurement": "LC50", "setting": "[4]", "result": 65, "unit": "µg/mL"}, {"measurement": "LC50", "setting": "[5]", "result": 3, "unit": "µg/mL"}, {"measurement": "LD50", "setting": "[6]", "result": 9.5, "unit": "mg/kg"}, {"measurement": "Stability", "setting": "Chemical stability", "result": "unstable"}]}
{"smiles": "CNC(=O)ON=CC(C)(C)[N+](=O)[O-]", "note": "[drawing 22 R=H, X=NO2, reference compound]", "values": [{"measurement": "LC50", "setting": "[1]", "result": 6, "unit": "µg/mL"}, {"measurement": "LC50", "setting": "[2]", "result": 32, "unit": "µg/mL"}, {"measurement": "LC50", "setting": "[3]", "result": 55, "unit": "µg/mL"}, {"measurement": "LC50", "setting": "[4]", "result": 80, "unit": "µg/mL"}, {"measurement": "LC50", "setting": "[5]", "result": 3, "unit": "µg/mL"}, {"measurement": "LD50", "setting": "[6]", "result": 4, "unit": "mg/kg"}, {"measurement": "Stability", "setting": "Chemical stability", "result": "unstable"}]}
{"smiles": "CN(SC(F)(F)F)C(=O)ON=CC(C)(C)C#N", "note": "[drawing 22 R=SCF3, X=CN, 2-Methyl-2-cyanopropionaldehyde O-(N-methyl-N-trifluoromethanesulfenylcarbamoyl)oxime]", "values": [{"measurement": "LC50", "setting": "[1]", "result": 38, "unit": "µg/mL"}, {"measurement": "LC50", "setting": "[2]", "result": 90, "unit": "µg/mL"}, {"measurement": "LC50", "setting": "[3]", "result": 300, "unit": "µg/mL"}, {"measurement": "LC50", "setting": "[4]", "result": 40, "unit": "µg/mL"}, {"measurement": "LC50", "setting": "[5]", "result": 14, "unit": "µg/mL"}, {"measurement": "Stability", "setting": "Chemical stability", "result": "stable"}]}
{"smiles": "CNC(=O)ON=C(C)SCCC#N", "note": "[drawing 23 R=H, reference compound]", "values": [{"measurement": "LC50", "setting": "[1]", "result": 8, "unit": "µg/mL"}, {"measurement": "LC50", "setting": "[2]", "result": 8, "unit": "µg/mL"}, {"measurement": "LC50", "setting": "[3]", "result": 5, "unit": "µg/mL"}, {"measurement": "LC50", "setting": "[4]", "result": 25, "unit": "µg/mL"}, {"measurement": "LC50", "setting": "[5]", "result": 2, "unit": "µg/mL"}, {"measurement": "LD50", "setting": "[6]", "result": 7.7, "unit": "mg/kg"}, {"measurement": "Stability", "setting": "Chemical stability", "result": "stable"}]}
